Measured values: patent US20240035071A1, “CATALYTIC DE-CROSSLINKING OF SAMPLES FOR IN SITU ANALYSIS” (10X Genomics, Inc., priority 2022, published 2024)

Tests used:
[1] = test system: FFPE mouse brain tissues; test: RCP signal detection in de-crosslinked FFPE mouse brain tissues; conditions: compared to Compound 1 in citrate buffer (pH 6.8)
Protocol: FFPE mouse brain tissues were processed essentially as described in Example 1, and gene expression analysis for RNA transcripts and protein analysis (e.g., anti-GFAP antibody staining) in the dentate gyrus (DG) region were performed essentially as described in Examples 2 and 3. Four de-crosslinking agent and buffer combinations were tested: Compound 1 in citrate buffer (pH 6.8), Compound 15 in citrate buffer (pH 6.8), Compound 18 (trans-4-hydroxy-L-proline) in citrate buffer (pH 6.8), and Compound 1 in PBS (pH 7.4).

[2] = test system: FFPE human breast cancer samples; test: antibody staining (Pan cytokeratin, Vimentin, Ki67) in FFPE human breast cancer samples de-crosslinked with additives; conditions: in the presence of urea and proteinase K
Protocol: (§1) FFPE human breast cancer samples sectioned to […] thickness were processed essentially as described in […]. Specifically, 2-amino-5-methylbenzoic acid (Compound 1) was used as the de-crosslinking agent and applied to de-paraffinized and re-hydrated samples in a buffer solution with various additives, such as 0.05% SDS, 0.2% SDS, 0.5% SDS, 0.05 M urea, 0.5 M urea, 0.2 μg/ml proteinase K, 0.5 μg/ml proteinase K, 1 μg/ml proteinase K, and combinations thereof. The samples were incubated at 80° C. for 30 minutes, using 150 mM of Compound 1. Analytes in the de-crosslinked tissue samples were detected essentially as described in Example 2 using circularizable probes (e.g., padlock probes) targeting ACTB, GAPDH, MALAT-1, RPLPO, Eef2, Ppib, POLR2A RNA transcripts. Detectable probes were hybridized to sequences (e.g., barcode sequences or anchor sequences) in the RCPs and comprised overhangs for hybridization of fluorescently labelled detection oligonucleotides. The samples were imaged in fluorescent microscope with 40× objective and the signals associated with the RCPs were quantified using a software.
(§2) FIG. 10A-10C show the detected object count per nucleic area (RCP count/μm^2 nuclei area) in cells of the human breast cancer samples treated with Compound 1 for de-crosslinking in the presence or absence of additives SDS, urea, and/or proteinase K as indicated. […]

[3] = test system: FFPE human breast cancer, melanoma, lymph node, lung cancer, and normal lung tissues; test: anti-Vimentin antibody staining in de-crosslinked FFPE samples from various tissues; conditions: across the tissue types, compared to de-crosslinking in a steamer and heating at 95° C. in TE buffer
From the text: (§3) The samples were washed (e.g., in PBST) and detectable probes in a hybridization buffer (e.g., containing SSC and formamide) were hybridized to RCA products (RCPs) in the sample. The detectable probes included probes that hybridize to sequences (e.g., barcode sequences or anchor sequences) in the RCPs and comprise overhangs for hybridization of fluorescently labelled detection oligonucleotides. The samples were imaged in fluorescent microscope with 40× objective and the signals associated with the RCPs were quantified using a software. In some instances, the samples were also stained with DAPI and/or labelled antibodies, e.g., fluorescently labelled anti-Vimentin antibody or anti-panCK antibody. In some instances, once the samples were imaged to detect signals associated with the detectable probes or labelled antibodies, the samples were stripped (e.g., using a denaturing agent) and contacted with additional detectable probes or labelled antibodies for the next imaging round.
FFPE human breast cancer, melanoma, lymph node, lung cancer, and normal lung tissues were processed essentially as described in Example 1. […] Analytes in the de-crosslinked tissue samples were detected essentially as described in Example 2.

[4] = test system: FFPE human breast cancer tissues; test: RCP detection (RCP count/μm^2 nuclei area) in catalytically de-crosslinked FFPE human breast cancer samples; conditions: for detection of RCPs (detected object counts per nucleic area, RCP count/μm^2 nuclei area): 100 mM, 80° C., 30 minutes, compared to control de-crosslinked in a steamer for 30 minutes using citrate buffer (pH 6)
From the text: A formalin-fixed, paraffin-embedded (FFPE) tissue sample was cut into thin tissue sections using a pre-warmed microtome. The sections were placed on slides and dried at a temperature higher than room temperature, followed by overnight drying at room temperature in a desiccator. Images of the sections were taken for record, e.g., in order to monitor tissue morphology and/or detachment during sample processing. In some instances, images of the sections taken after de-crosslinking were compared to those before de-crosslinking.
The slides were baked uncovered in an oven, and then calibrated to room temperature. The sections were de-paraffinized and dehydrated using xylene and absolute ethanol. The sections were then re-hydrated using an ethanol series (e.g., 96% ethanol followed by 70% ethanol), and then re-hydrated in nuclease free water (e.g., DEPC water). The slides were gently dried to allow application of a cassette to seal around the tissue sections, without letting the tissue section to dry completely.
The sections were then de-crosslinked using a catalyst disclosed herein in a buffer solution. In some instances, the a de-crosslinking buffer can function as an antigen retriever buffer. Then the sections were washed three times with RNase-free phosphate-buffered saline (PBS) or PBST (phosphate-buffered saline solution with a low-concentration detergent solution, e.g., 0.05% to 0.1% Tween™ 20) prior to application of labelling agents (e.g., detectable nucleic acid probes for nucleic acids and/or labelled antibodies for proteins) to the tissue samples.
FFPE human breast cancer tissues were sectioned to […] thickness, transferred to Superfrost© Plus slides, and processed essentially as described in Example 1. Specifically, 2-amino-5-methylbenzoic acid (Compound 1) was used as the de-crosslinking agent and applied to de-paraffinized and re-hydrated samples in a buffer solution, such as a solution of citrate buffer at pH 6 or a solution of Tris-EDTA (TE) buffer at pH 9. […]

[5] = test system: FFPE human breast cancer, melanoma, lymph node, lung cancer, and normal lung tissues; test: RCP/RNA transcript detection in de-crosslinked FFPE samples from various tissues; conditions: across the tissue types; for visualization of transcripts GAPDH/RPLPO or MALAT-I/ACTB (RCPs): 0 mM or 200 mM, 30 minutes, compared to de-crosslinking in a steamer; for RNA/protein visualization: overlaid images of RNA detection and protein detection
Protocol: The de-crosslinked and washed tissue samples can be immediately used for analyte detection. In some instances, circularizable probes (e.g., padlock probes) targeting MALAT-1/ACTB (nuclear/cytoplasmic) or GAPDH/RPLPO (cytoplasmic) RNA transcripts were added in hybridization buffers (e.g., including SSC and formamide) and incubated with the samples to allow hybridization of the circularizable probes to their target nucleic acids. In addition to a target hybridization region, each circularizable probe also contained a common anchor region and a barcode region. Then, the probe hybridization mixture was removed and the samples were washed. For ligation of the circularizable probes hybridized to their target nucleic acids, a ligation reaction mix (e.g., containing a SplintR® ligase buffer, RNase inhibitor and SplintR® ligase) and a rolling circle amplification (RCA) primer were added to the samples and incubated for probe circularization and RCA primer hybridization to the probes. The samples were washed and an RCA reaction mixture (containing Phi29 reaction buffer, dNTPs, Phi29 polymerase) was added and incubated for RCA of the circularized probes.
as §3
FFPE human breast cancer, melanoma, lymph node, lung cancer, and normal lung tissues were processed essentially as described in Example 1. Specifically, 2-amino-5-methylbenzoic acid (Compound 1) or (4-aminopyridin-3-yl)phosphonic acid (Compound 8) was used as the de-crosslinking agent and applied to de-paraffinized and re-hydrated samples in a buffer solution, such as a solution of citrate buffer at pH 6 or a solution of TE buffer at pH 9. […] Analytes in the de-crosslinked tissue samples were detected essentially as described in Example 2.

[6] = test system: FFPE human breast cancer samples; test: tissue morphology by H&E staining after de-crosslinking workflow with additives; conditions: post workflow and detection, confirmed by H&E staining
Protocol: as §1, §2

[7] = test system: FFPE human breast cancer tissues; test: anti-panCK antibody staining in de-crosslinked FFPE human breast cancer samples; conditions: various concentrations in citrate or TE buffer; compared to control de-crosslinked in a steamer
Protocol: FFPE human breast cancer tissues were sectioned to […] thickness, transferred to Superfrost© Plus slides, and processed essentially as described in Example 1. Specifically, 2-amino-5-methylbenzoic acid (Compound 1) was used as the de-crosslinking agent and applied to de-paraffinized and re-hydrated samples in a buffer solution, such as a solution of citrate buffer at pH 6 or a solution of Tris-EDTA (TE) buffer at pH 9. The samples were incubated under various de-crosslinking temperatures (e.g., 80° C. or 95° C.) for various time periods (e.g., 15 minutes or 30 minutes). Different concentrations of the de-crosslinking agent in the buffer solutions were tested, including 0 mM, 50 mM, 100 mM, 200 mM, and 400 mM of Compound 1.
The samples were washed (e.g., in PBST) and detectable probes in a hybridization buffer (e.g., containing SSC and formamide) were hybridized to RCA products (RCPs) in the sample. The detectable probes included probes that hybridize to sequences (e.g., barcode sequences or anchor sequences) in the RCPs and comprise overhangs for hybridization of fluorescently labelled detection oligonucleotides. The samples were imaged in fluorescent microscope with 40× objective and the signals associated with the RCPs were quantified using a software. […]

[8] = test system: normal lung tissue samples; test: RCP detection in catalytically de-crosslinked FFPE normal lung tissue samples; parameters: species or system human; conditions: compared to control samples de-crosslinked in a steamer (data not shown)
Protocol: FFPE human breast cancer, melanoma, lymph node, lung cancer, and normal lung tissues were processed essentially as described in Example 1. Specifically, 2-amino-5-methylbenzoic acid (Compound 1) or (4-aminopyridin-3-yl)phosphonic acid (Compound 8) was used as the de-crosslinking agent and applied to de-paraffinized and re-hydrated samples in a buffer solution, such as a solution of citrate buffer at pH 6 or a solution of TE buffer at pH 9. The samples were incubated under various de-crosslinking temperatures (e.g., 80° C. or 95° C.) for 30 minutes, using 0 mM or 200 mM of Compound 1 or Compound 8. Analytes in the de-crosslinked tissue samples were detected essentially as described in Example 2.
The RCPs were detected using detectable probes targeting barcode sequences for MALAT-I/ACTB or GAPDH/RPLPO or targeting the common anchor region in the RCPs (representative images in FIG. 8, left panel).

[9] = test system: FFPE human breast cancer samples; test: RCP detection in FFPE human breast cancer samples de-crosslinked with additives; conditions: for detection of RCPs (detected object counts per nucleic area): 150 mM, 80° C., 30 minutes, compared to no additional additives or single additives
Protocol: as §1
FIG. 10A-10C show the detected object count per nucleic area (RCP count/μm^2 nuclei area) in cells of the human breast cancer samples treated with Compound 1 for de-crosslinking in the presence or absence of additives SDS, urea, and/or proteinase K as indicated. […] In addition, it was observed antibody staining (e.g., antibody positive signal intensity for Pan cytokeratin, Vimentin, and Ki67) was compatible with the catalytic de-crosslinking conditions with Compound 1 in the presence of urea and proteinase K. Tissue morphology was also observed to be preserved post workflow and detection as confirmed by H&E staining that was performed.

SMILES: Cc1ccc(N)c(C(=O)O)c1 [Compound 1, 2-amino-5-methylbenzoic acid]
- signal density (detected object signal intensity above local background (mean)) ([1]; PBS (pH 7.4)): improved signal density
- antibody staining (antibody positive signal intensity for Pan cytokeratin, Vimentin, and Ki67) [2]: compatible
- anti-Vimentin antibody staining [3]: enhanced anti-Vimentin antibody staining
- detection of RCPs (detected object counts per nucleic area, RCP count/μm^2 nuclei area) ([4]; TE buffer (pH 9)): significantly improve the detection of RCPs
- detection of RCPs (detected object counts per nucleic area, RCP count/μm^2 nuclei area) ([4]; citrate buffer (pH 6)): significantly improve the detection of RCPs
- sensitivity and RCP brightness ([4]; citrate buffer, between about 100 and about 200 mM): boost sensitivity and RCP brightness
- visualization of transcripts GAPDH/RPLPO or MALAT-I/ACTB (RCPs) [5]: enhanced visualization
- RNA/protein visualization [5]: enhanced RNA/protein visualization
- tissue morphology [6]: preserved
- antibody staining (antibody positive signal intensity), anti-panCK [7]: may be improved
- RCP densities (detected object count per nucleic area, RCP count/μm^2 nuclei area) [8]: Higher RCP densities
- detection of RCPs (detected object counts per nucleic area) ([9]; in the presence of SDS and proteinase K): appeared to improve the detection of RCPs
- detection of RCPs (detected object counts per nucleic area) ([9]; in the presence of urea and proteinase K): appeared to improve the detection of RCPs
- puncta brightness and/or numbers detected ([9]; in the presence of both 0.5 M urea and 1 μg/ml proteinase K): increases in puncta brightness and/or numbers detected
- puncta brightness and/or numbers detected ([9]; in the presence of both 0.5 M urea with 0.5 μg/ml Proteinase K): increases in puncta brightness and/or numbers detected

SMILES: Nc1ccncc1P(=O)(O)O [Compound 8, (4-aminopyridin-3-yl)phosphonic acid]
- anti-Vimentin antibody staining [3]: enhanced anti-Vimentin antibody staining
- visualization of transcripts GAPDH/RPLPO or MALAT-I/ACTB (RCPs) [5]: enhanced visualization
- RNA/protein visualization [5]: enhanced RNA/protein visualization
- RCP densities (detected object count per nucleic area, RCP count/μm^2 nuclei area) [8]: Higher RCP densities

SMILES: Nc1ccccc1P(=O)(O)O [Compound 15, (2-aminophenyl)phosphonic acid]
- signal density (detected object signal intensity above local background (mean)) ([1]; citrate buffer (pH 6.8)): improved signal density

SMILES: O=C(O)[C@@H]1C[C@@H](O)CN1 [Compound 18, trans-4-hydroxy-L-proline]
- signal density (detected object signal intensity above local background (mean)) ([1]; citrate buffer (pH 6.8)): improved signal density
